Results published in patent US20100004277A1, “COMPOUNDS AND METHODS FOR MODULATING PROTEIN TRAFFICKING” (FoldRx Pharmaceuticals, Inc., priority 2006, published 2010).

The compounds below were run on ypt1^ts cells (assay: ypt1^ts mutant growth rescue assay (OD600)). Conditions: 2.0 μM, 37° C., 40 hours.
Assay type: cell-based, yeast
From the text: The yeast mutant cell line ypt1^ts suppresses, in a temperature dependent fashion, the dominant-lethal phenotype of a mutant YPT1 allele (Schmitt et al. (1988) Cell 53:635-47). The yeast mutant cell line ypt1^ts contains an allele of YPT1 that has two point mutations: one that changes an asparagine at position 121 to a isoleucine (N121I) and another that changes an alanine at position 161 to a valine (A161V). The N121I mutation causes dominant lethality by itself, but lethality is suppressed by the second mutation, resulting in a recessive loss of function phenotype at the restrictive temperatures. ypt1^ts cells grow normally at temperatures up to 25° C., but are growth arrested at 37° C. (Id.).
Compounds that rescue cells from alpha-synuclein toxicity were screened to assess their ability to restore growth of ypt1^ts cells. The effect of the compounds was measured on ypt1^ts cells cultured at room temperature (permissive temperature), 37° C. (non-permissive temperature), and 35° C. (semi-permissive temperature).
To determine if the test compounds could rescue the ypt1^ts mutant phenotype, ypt1^ts cells were grown overnight in synthetic complete (SC) media supplementd with 2% glucose at room temperature. Log phase cells were diluted into SC 2% glucose media to an OD600 of 0.003. 100 μL of this culture was then aliquoted into each well of 96-well flat bottom microtiter plates. 1 μL of the test compounds dissolved in DMSO (at a concentration range from 5 mM-0.005 mM) or of DMSO alone was added to each well (50 uM-0.05 uM final concentration in 1% DMSO). Plates were mixed by vortexing and incubated at 35° C. and 37° C. Compound rescue of the ypt1^ts temperature sensitive defect was assessed by measuring the OD600 (optical density at 600 nm; cell growth) of the cultures. Plates incubated at 35° C. were measured at 24 and 40 hours incubation time while plates grown at 37° C. were measured after 40 hours of incubation.
Assays monitoring the rescue of ypt1^ts mutants were performed using a vehicle, a positive control (calcium), active compounds obtained from the alpha-synuclein screen (Cpd. I.1 and Cpd. II.1), alpha-synuclein-active analogs of Cpd. […] I.1 (Cpd. I.4 and Cpd. I.5).

Structure (SMILES) | rescue of the ypt1^ts mutant phenotype
N/C(=N\C(=O)C1CC1)Nc1nc2ccccc2s1 [Cpd. I.3] | rescued

Same assay, conditions: 5.0 μM, 37° C., 40 hours

Structure (SMILES) | rescue of the ypt1^ts mutant phenotype
O=C1CC(c2cccc(Cl)c2)c2cc3c(cc2N1)CCC3 (centres unmarked) [Cpd. II.3] | rescued

Same assay, conditions: 35° C. and 37° C.

Structure (SMILES) | rescue of ypt1^ts loss of function / restoring growth of ypt1^ts
CCC(=O)/N=C(\N)Nc1nc2ccccc2s1 [Cpd. I.1] | rescue
N=C(NC(=O)[C@H]1C[C@@H]1c1ccccc1)Nc1nc2ccccc2o1 [Cpd. I.2] | rescued
N/C(=N\C(=O)C1CC1)Nc1nc2ccccc2s1 [Cpd. I.3] | rescued
N/C(=N\C(=O)C1CCCCC1)Nc1nc2ccccc2o1 [Cpd. I.4] | did not
N=C(NC(=O)[C@@H]1C[C@@H]1c1ccccc1)Nc1nc2ccccc2o1 [Cpd. I.5] | did not
O=C1CC(c2ccccc2)c2ccc3ccccc3c2N1 (centres unmarked) [Cpd. II.1] | rescue
[Ca+2] [calcium, reference compound] | rescued
C[C@@H]1C[C@@H]([C@H](O)CC2CC(=O)NC(=O)C2)C(=O)[C@@H](C)C1 [cycloheximide, reference compound] | effective
COc1cccc2c1C(=O)c1c(O)c3c(c(O)c1C2=O)C[C@@](O)(C(=O)CO)C[C@@H]3O[C@H]1C[C@H](N)[C@H](O)[C@H](C)O1 [doxorubicin, reference compound] | effective
CO[C@@H]1[C@@H](OC(N)=O)[C@@H](O)[C@H](Oc2ccc3c(O)c(NC(=O)c4ccc(O)c(CC=C(C)C)c4)c(=O)oc3c2C)OC1(C)C [novobiocin, reference compound] | effective

These compounds were tested on sar1^ts mutant yeast strain (assay: sar1^ts mutant growth rescue assay (OD600)). Conditions: 35° C., 72 hours, 0.05 to 50 μM.
Assay type: cell-based
Protocol: The sar1st mutant yeast strain (ATCC, Manassas, Va.) carries a temperature sensitive mutant allele of the SAR1 gene, which permits the strain to grow at 25° C., but undergo growth arrest at 35° C. or higher. Inactivation of the mutant Sar1^ts protein at 35° C. prevents the formation of transport vesicles at the ER, causing a block in ER to golgi trafficking (Saito et al. (1998) J. Biochem. (Tokyo) 124(4):816-823).
To identify compounds that rescue the sar1^ts mutant phenotype, the mutant strain was first grown at 25° C. in rich media overnight. The strain was then diluted to an OD600 of 0.004 in SC media with 2% glucose, and mixed with various dilutions of test compounds (0.05 to 50 μM) in SC media with 2% glucose. The cells were then incubated at 25° C. or 35° C. for 72 hours. Rescue of the sar1^ts mutant phenotype was scored as an increase in the OD600 (concentration of the yeast cells) cultured in the presence of a test compound as compared to cells cultured cultured in the absence of the test compound.

Structure (SMILES) | rescue of the sar1^ts mutant phenotype
CCC(=O)/N=C(\N)Nc1nc2ccccc2s1 [Cpd. I.1] | rescue
N/C(=N\C(=O)C1CC1)Nc1nc2ccccc2s1 [Cpd. I.3] | rescue
N=C(NC(=O)[C@@H]1C[C@@H]1c1ccccc1)Nc1nc2ccccc2o1 [Cpd. I.5] | rescue
O=C1CC(c2ccccc2)c2ccc3ccccc3c2N1 (centres unmarked) [Cpd. II.1] | not detected
C[C@@H]1C[C@@H]([C@H](O)CC2CC(=O)NC(=O)C2)C(=O)[C@@H](C)C1 [cycloheximide, reference compound] | rescue
COc1cccc2c1C(=O)c1c(O)c3c(c(O)c1C2=O)C[C@@](O)(C(=O)CO)C[C@@H]3O[C@H]1C[C@H](N)[C@H](O)[C@H](C)O1 [doxorubicin, reference compound] | not detected

What follows are compounds tested on ΔF508 CFTR (assay: ΔF508 CFTR stabilization in CFBE cells, western blot). Conditions: 10 μM, 16 hours, 37° C.
Assay type: cell-based
Protocol: Selected compounds identified in the ypt1^ts screen were further tested for their ability to stabilize ΔF508 CTFR. CFBE cells, a cell line generated by transformation of cystic fibrosis tracheo-bronchial cells (ΔF508 CTFR homozygous) with SV40 (Bruscia et al. (2002) Gene Ther. 9(11):683-685), were cultured with 10 μM Cpd. I.3, 10 μM Cpd. II.2, or 10 μM VRT-325 for 16 hours at 37° C. (VRT-325 is described in, e.g., Van Goor et al. (2006) Am. J. Physiol. Lung Cell Mol. Physiol. 290:L1117-L1130). A population of cells was also cultured with the dimethyl sulfoxide (DMSO) solvent as a control.
Following incubation, cells were lysed, solubilized in Laemmli buffer, and subjected to SDS-PAGE. CFTR protein was visualized by western blotting using an antibody specific for CFTR. Culturing CFBE cells with Cpd. I.3 or Cpd. II.2 increased the amount of cellular ΔF508 CFTR protein (see band “B,” FIG. 3A). Cpd. I.3 and Cpd. […] The effects of Cpd. I.3 or Cpd.
Next, to test the effect of different concentrations of Cpd. I.3 and Cpd. II.2 on ΔF508 CFTR, a dose response experiment was performed. CFBE cells were grown at 37° C. for 16 hours in the presence of 1, 2.5, 5, or 10 μM Cpd. I.3 or Cpd. II.2. Following incubation, lysates were prepared from the various treated cell populations, the lysates solubilized in Laemmli buffer, and subjected to SDS-PAGE. The relative amounts of glysosylated (band “C”) and unglycosylated (band “B”) ΔF508 CFTR protein were visualized by western blotting as above (FIGS. 4A and 4C). The band intensities were quantitated by scanning and densitometry. […] I.3 (FIG. 4B) and Cpd. II.2 (FIG. 4D), respectively.

Structure (SMILES) | effects on stabilizing ΔF508 CFTR compared with VRT-325
N/C(=N\C(=O)C1CC1)Nc1nc2ccccc2s1 [Cpd. I.3] | comparable or better

Same assay, conditions: 10 μM, 16 hours, 37° C., vs DMSO

Structure (SMILES) | amount of cellular ΔF508 CFTR protein (band B) | amount of the glycosylated form of ΔF508 CFTR (band C)
N/C(=N\C(=O)C1CC1)Nc1nc2ccccc2s1 [Cpd. I.3] | increased | increased

Same assay, conditions: 16 hours, 37° C.

Structure (SMILES) | concentration at which efficacy reached a maximum (dose response curves from western blot)
N/C(=N\C(=O)C1CC1)Nc1nc2ccccc2s1 [Cpd. I.3] | 1 to 2.5 µM

Same assay, conditions: all concentrations tested (1-10 μM), 16 hours, 37° C.

Structure (SMILES) | amount of glycosylated and unglycosylated ΔF508 CFTR proteins compared to absence of compound
N/C(=N\C(=O)C1CC1)Nc1nc2ccccc2s1 [Cpd. I.3] | increase

These compounds were tested on alpha-synuclein toxicity (assay: alpha-synuclein screen (rescue of cells from alpha-synuclein toxicity)). Conditions: not given.
Assay type: cell-based

Structure (SMILES) | activity in the alpha-synuclein screen
CCC(=O)/N=C(\N)Nc1nc2ccccc2s1 [Cpd. I.1] | active
N=C(NC(=O)[C@H]1C[C@@H]1c1ccccc1)Nc1nc2ccccc2o1 [Cpd. I.2] | active
N/C(=N\C(=O)C1CC1)Nc1nc2ccccc2s1 [Cpd. I.3] | active
N/C(=N\C(=O)C1CCCCC1)Nc1nc2ccccc2o1 [Cpd. I.4] | inactive
N=C(NC(=O)[C@@H]1C[C@@H]1c1ccccc1)Nc1nc2ccccc2o1 [Cpd. I.5] | inactive
O=C1CC(c2ccccc2)c2ccc3ccccc3c2N1 (centres unmarked) [Cpd. II.1] | active

These compounds were tested on sec23-2^ts mutant yeast strain (assay: sec23^ts mutant growth rescue assay (OD600)). Conditions: 30° C., 24 hours, 0.05 to 50 μM.
Assay type: cell-based
Protocol: The sec23-2^ts mutant yeast strain carries a temperature sensitive mutant allele of the SEC23 gene, which permits the strain to grow normally at 25° C., but undergo growth arrest at 30° C. or higher. Inactivation of the Sec23 temperature-sensitive mutant protein at the restrictive temperature prevents the formation of transport vesicles at the ER resulting in a block in ER to golgi trafficking (see, e.g., Hicke et al. (1989) EMBO J. 8(6):1677-1684 and Castillo-Flores et al. (2005) J. Biol. Chem. 280(40):34033-34041).
To identify compounds that rescue the sec23^ts mutant phenotype, the mutant strain was first grown at 25° C. in rich media overnight. The strain was then diluted to an OD600 of 0.004 in SC media with 2% glucose, and mixed with various dilutions of test compounds compounds compounds (0.05 to 50 μM) in SC media with 2% glucose. The cells were then incubated at 25° C. or 30° C. for 24 hours. Rescue of the sec23^ts mutant phenotype was scored as an increase in the OD600 of cells cultured in the presence of the a compound as compared to cells cultured in the absence of the test compound.

Structure (SMILES) | rescue of the sec23^ts mutant phenotype
CCC(=O)/N=C(\N)Nc1nc2ccccc2s1 [Cpd. I.1] | rescue
N/C(=N\C(=O)C1CC1)Nc1nc2ccccc2s1 [Cpd. I.3] | rescue
N=C(NC(=O)[C@@H]1C[C@@H]1c1ccccc1)Nc1nc2ccccc2o1 [Cpd. I.5] | not detected
O=C1CC(c2ccccc2)c2ccc3ccccc3c2N1 (centres unmarked) [Cpd. II.1] | not detected
C[C@@H]1C[C@@H]([C@H](O)CC2CC(=O)NC(=O)C2)C(=O)[C@@H](C)C1 [cycloheximide, reference compound] | not detected
COc1cccc2c1C(=O)c1c(O)c3c(c(O)c1C2=O)C[C@@](O)(C(=O)CO)C[C@@H]3O[C@H]1C[C@H](N)[C@H](O)[C@H](C)O1 [doxorubicin, reference compound] | not detected
